Measured values reported in ChEMBL document CHEMBL1949614, “Advent of Imidazo[1,2-a]pyridine-3-carboxamides with Potent Multi- and Extended Drug Resistant Antituberculosis Activity” (ACS Med Chem Lett, 2011).
≈ marks a conversion by molar mass, not a printed value.

Assays:
Assay type in all cases: functional
[1] = system: Mycobacterium tuberculosis; assay: Antitubercular activity against multidrug-resistant isoniazid, rifampicin, ethambutol, streptomycin, p-aminosalicylic acid-resistant Mycobacterium tuberculosis by microbroth dilution assay
[2] = system: Mycobacterium tuberculosis; assay: Antitubercular activity against multidrug-resistant isoniazid, rifampicin, ethambutol, pyrazinamide, streptomycin, p-aminosalicylic acid-resistant Mycobacterium tuberculosis clinical isolate by microbroth dilution assay
[3] = system: Mycobacterium tuberculosis; assay: Antitubercular activity against multidrug-resistant isoniazid, cycloserine, p-aminosalicylic acid, ethionamide/thioacetazone-resistant Mycobacterium tuberculosis clinical isolate by microbroth dilution assay
[4] = system: Mycobacterium tuberculosis; assay: Antitubercular activity against multidrug-resistant isoniazid, rifampicin, ethambutol, kanamycin, p-aminosalicylic acid-resistant Mycobacterium tuberculosis clinical isolate by microbroth dilution assay
[5] = system: Mycobacterium tuberculosis; assay: Antitubercular activity against multidrug-resistant isoniazid, rifampicin, ethambutol, rifabutin-resistant Mycobacterium tuberculosis clinical isolate by microbroth dilution assay
[6] = system: Mycobacterium tuberculosis; assay: Antitubercular activity against multidrug-resistant isoniazid, rifampicin, ethambutol, pyrazinamide, streptomycin, kanamycin, p-aminosalicylic acid, ethionamide/thioacetazone-resistant Mycobacterium tuberculosis clinical isolate by microbroth dilution assay
[7] = system: Mycobacterium tuberculosis; assay: Antitubercular activity against multidrug-resistant isoniazid, rifampicin, ethambutol, pyrazinamide, rifabutin, thioacetazone/ethionamide-resistant Mycobacterium tuberculosis clinical isolate by microbroth dilution assay
[8] = system: Mycobacterium tuberculosis; assay: Antitubercular activity against extensively drug-resistant isoniazid, rifampicin, ethambutol, streptomycin, cycloserine, p-aminosalicylic acid, ethionamide/thioacetazone, ofloxacin-resistant Mycobacterium tuberculosis clinical isolate by microbroth dilution assay
[9] = system: Mycobacterium tuberculosis; assay: Antitubercular activity against extensively drug-resistant isoniazid, rifampicin, ethambutol, kanamycin, p-aminosalicylic acid, ethionamide/thioacetazone, ofloxacin-resistant Mycobacterium tuberculosis clinical isolate by microbroth dilution assay
[10] = system: Mycobacterium tuberculosis; assay: Antitubercular activity against extensively drug-resistant isoniazid, rifampicin, ethambutol, streptomycin, p-aminosalicylic acid, ofloxacin-resistant Mycobacterium tuberculosis clinical isolate by microbroth dilution assay

Row | SMILES | MIC90 [1] [µM] | MIC90 [2] [µM] | MIC90 [3] [µM] | MIC90 [4] [µM] | MIC90 [5] [µM] | MIC90 [6] [µM] | MIC90 [7] [µM] | MIC90 [8] [µM] | MIC90 [9] [µM] | MIC90 [10] [µM]
1 | Cc1ccn2c(C(=O)NCc3ccccc3)c(C)nc2c1 | 2.24 (≈ 0.626 µg/mL) | 1.12 (≈ 0.313 µg/mL) | 1.12 (≈ 0.313 µg/mL) | 0.28 (≈ 0.0782 µg/mL) | 0.14 (≈ 0.0391 µg/mL) | 0.07 (≈ 0.0196 µg/mL) | 0.14 (≈ 0.0391 µg/mL) | 0.07 (≈ 0.0196 µg/mL) | 0.07 (≈ 0.0196 µg/mL) | 0.14 (≈ 0.0391 µg/mL)
2 | COc1cccc(CNC(=O)c2c(C)nc3cc(C)ccn23)c1 | 1.01 (≈ 0.312 µg/mL) | 0.06 (≈ 0.0186 µg/mL) | 0.13 (≈ 0.0402 µg/mL) | 0.13 (≈ 0.0402 µg/mL) | ≤ 0.03 | ≤ 0.03 | 0.06 (≈ 0.0186 µg/mL) | 0.03 (≈ 0.00928 µg/mL) | 0.02 (≈ 0.00619 µg/mL) | 0.02 (≈ 0.00619 µg/mL)
3 | Cc1ccn2c(C(=O)NCc3cccc(F)c3)c(C)nc2c1 | 0.26 (≈ 0.0773 µg/mL) | 0.06 (≈ 0.0178 µg/mL) | 0.26 (≈ 0.0773 µg/mL) | 0.26 (≈ 0.0773 µg/mL) | 0.13 (≈ 0.0387 µg/mL) | 0.06 (≈ 0.0178 µg/mL) | 0.06 (≈ 0.0178 µg/mL) | 0.07 (≈ 0.0208 µg/mL) | 0.03 (≈ 0.00892 µg/mL) | 0.03 (≈ 0.00892 µg/mL)
